{
  "source": "patent US20100130604A1",
  "about": "“USE OF ROSMARINIC ACID IN MANUFACTURE OF MEDICAMENTS FOR TREATING OR PREVENTING HEPATIC AND RENAL DISEASES” (SHANGDONG LUYE NATURAL DRUG RESEARCH AND DEVELOPMENT CO., …, priority 2006, published 2010)",
  "key": {"[1]": {"system": "CTGF", "test": "Western blot of intracellular CTGF protein expression in PTECs", "format": "cell-based", "conditions": "for CTGF expression: 72 h, relative OD of band", "method": "Western blot method was used to detect intracellular CTGF expression. PTEC cells at logarithmic phase were seeded to 96-well plate at the density of 1×10^5/mL. The medium was replaced with serum-free DMEM 24 hours later and the cell culture was cultured statically for 24 hours. Treat the wells as mentioned above. 72 hours later, cellular protein was extracted from the cell lysate according to modified Lowry method (Peterson G L. A simplification of the protein assay method of Lowry et al, which is more generally applicable. Anal Biochem, 1977, 83:346). 75 μg of total protein was loaded on each lane and all lanes were subject to 12% SDS-PAGE before the protein was transferred onto nitrocellulose membrane. Dye with Ponceau S (Sigma) to confirm transference and mark relative molecular weight standards. The membrane was then blocked in 5% solution of skimmed milk powder in TBST for 1 hour at room temperature. After washing, multiclonal goat-anti-rat anti-CTGF antibody (1:500, from Santa Cruz Co. Ltd.) was added and incubated overnight at 4° C. Then HRP-labeled anti-goat IgG secondary antibody (1:2 500, from Santa Cruz Co. Ltd.) was added and incubated at 37° C. for 1 hour. After rinsing, develop with 3,3-diaminobenzidine (DAB). Relative OD values of each band were analysed and the data are presented as χ±s. SPSS software was used in statistical analysis. ANOVA was applied for multi-group comparison."}, "[2]": {"system": "renal interstitial fibrosis in rats", "test": "Renal interstitial fibrosis in rats with unilateral urethral obstruction", "format": "in vivo, Sprague Dawley rats", "conditions": "for HYP: left kidney; for HYP / FN: day 10; for FN: serum", "method": "130 rats were randomly divided into 13 groups, namely, a sham operation group, a model group, benazapril p.o. Group at 10 mg/kg, RA i.v. groups at 2.5 mg/kg, 5 mg/kg, 25 mg/kg, 75 mg/kg, and 150 mg/kg of RA, and RA p.o. groups at 2.5 mg/kg, 5 mg/kg, 25 mg/kg, 150 mg/kg, and 300 mg/kg of RA. The animals were acclimated for a week before they were all anaesthetised with an i.p. dose of 10% chloral hydrate at 3.0mL/kg and placed on the operating table in right lateral position. The rats were shaved and the operating area was disinfected using iodine tincture and 75% ethanol. The left urethra was exposed and isolated after a left lateral incision was made on the abdominal area and skin, muscles and all other layers of the abdominal wall were incised sequentially. In the sham group, the left urethra was only isolated without being ligated or cut off. In all other animals, the left urethra was ligated with No. 4 suture and obstructed followed by closure of the abdominal wall layer by layer. The animals were anaesthetised again with 10% chloral hydrate 10 days later, blood was collected and serum was separated to determine FN levels. The left kidney was removed after thorough rinsing and then fixed in 4% paraformaldehyde buffer. HYP level was determined according to instructions provided with the kit."}},
  "data": [
    {"smiles": "O=C(/C=C/c1ccc(O)c(O)c1)O[C@H](Cc1ccc(O)c(O)c1)C(=O)O", "note": "[RA, R(+)2-{[3-(3,4-dihydroxylphenyl-(oxo-2-propenyl)oxy]3,4-dihydroxylphenylpropionic acid]}]", "values": [
      {"measurement": "intracellular CTGF expression compared with the HG group", "setting": "[1]; 10 mg/L and 50 mg/L RA", "value": "significantly down-regulated"},
      {"measurement": "CTGF expression", "setting": "[1]; HG + 10 mg/L RA", "value": "5244 ± 106"},
      {"measurement": "CTGF expression", "setting": "[1]; HG + 50 mg/L RA", "value": "5345 ± 95"},
      {"measurement": "kidney lesions, light microscopic examination", "setting": "[2]; RA treated animals vs model group", "value": "improvement of various degrees in lesions"},
      {"measurement": "FN and HYP levels vs model group", "setting": "[2]; i.v. 2.5, 5, 25, 75, 150 mg/kg, p.o. 5, 25, 150, 300 mg/kg, p<0.05 or 0.01", "value": "can all significantly reduce FN and HYP levels"},
      {"measurement": "HYP", "setting": "[2]; i.v. 2.5 mg/kg", "value": "612 ± 102", "unit": "µg/g"},
      {"measurement": "HYP", "setting": "[2]; i.v. 5 mg/kg", "value": "605 ± 118", "unit": "µg/g"},
      {"measurement": "HYP", "setting": "[2]; i.v. 25 mg/kg", "value": "573 ± 98", "unit": "µg/g"},
      {"measurement": "HYP", "setting": "[2]; i.v. 75 mg/kg", "value": "533 ± 94", "unit": "µg/g"},
      {"measurement": "HYP", "setting": "[2]; i.v. 150 mg/kg", "value": "526 ± 121", "unit": "µg/g"},
      {"measurement": "HYP", "setting": "[2]; p.o. 2.5 mg/kg", "value": "705 ± 162", "unit": "µg/g"},
      {"measurement": "HYP", "setting": "[2]; p.o. 5 mg/kg", "value": "612 ± 118", "unit": "µg/g"},
      {"measurement": "HYP", "setting": "[2]; p.o. 25 mg/kg", "value": "573 ± 98", "unit": "µg/g"},
      {"measurement": "HYP", "setting": "[2]; p.o. 150 mg/kg", "value": "563 ± 94", "unit": "µg/g"},
      {"measurement": "HYP", "setting": "[2]; p.o. 300 mg/kg", "value": "556 ± 121", "unit": "µg/g"},
      {"measurement": "FN", "setting": "[2]; i.v. 2.5 mg/kg", "value": "22.7 ± 6.0", "unit": "mg/L"},
      {"measurement": "FN", "setting": "[2]; i.v. 5 mg/kg", "value": "19.9 ± 6.3", "unit": "mg/L"},
      {"measurement": "FN", "setting": "[2]; i.v. 25 mg/kg", "value": "17.7 ± 6.2", "unit": "mg/L"},
      {"measurement": "FN", "setting": "[2]; i.v. 75 mg/kg", "value": "16.5 ± 4.3", "unit": "mg/L"},
      {"measurement": "FN", "setting": "[2]; i.v. 150 mg/kg", "value": "16.4 ± 4.4", "unit": "mg/L"},
      {"measurement": "FN", "setting": "[2]; p.o. 2.5 mg/kg", "value": "22.4 ± 6.5", "unit": "mg/L"},
      {"measurement": "FN", "setting": "[2]; p.o. 5 mg/kg", "value": "19.8 ± 6.2", "unit": "mg/L"},
      {"measurement": "FN", "setting": "[2]; p.o. 25 mg/kg", "value": "17.5 ± 6.3", "unit": "mg/L"},
      {"measurement": "FN", "setting": "[2]; p.o. 150 mg/kg", "value": "17.2 ± 4.3", "unit": "mg/L"},
      {"measurement": "FN", "setting": "[2]; p.o. 300 mg/kg", "value": "17.2 ± 4.4", "unit": "mg/L"}
    ]}
  ]
}
